Measured values taken from patent US9546401B2, “Assays and methods for selecting a treatment regimen for a subject with depression” (The General Hospital Corporation, priority 2011, dated 2017).
Read-outs that look alike come from different tables or passages of the source.

How the values were obtained:
[1] = system: SSRI-resistant outpatients with major depressive disorder (MDD)
Excerpt: Using the sequential parallel design […] For those randomly assigned to the placebo/placebo sequence, both responders and non-responders to placebo during the first phase (n=25) remain on placebo during the second phase. […] Data from the previous double-blind, placebo-controlled study (Trial 1) can be pooled into the instant study (Trial 2) to provide a more accurate estimate of the placebo effect size, with a weighted average from the two Phases 1 (one from Trial 1 and one from Trial 2) and two Phases 2 (one from Trial 1 and one from Trial 2).
The primary efficacy measure can include the change in 17-item Hamilton Rating Scale for Depression (HAM-D-17) score. […] A remission is, for example, defined as a HAM-D-17 score less than 8 at endpoint. Secondary measures of efficacy can include change in CGI-severity, with “clinical response defined” as CGI-S of 1 or 2 at endpoint. Patients with a CGI-I score greater than 5 at any post baseline visit or a 50 percent or greater worsening of depressive symptoms from baseline to that visit are discontinued from the study. Subjects are also discontinued from the study with any emergence of suicidality, homicidality, mania, or psychosis. Additional exemplary instruments that can be administered according to the study schedule include the following: • (1) Structured Clinical Interview for DSM-IV: The SCID-I/P, administered by the clinician, proceeds by modules to diagnose the different Axis I disorders. Questions are asked exactly as written, and each is based on the individual criteria from DSM-IV. Answers are generally rated on a scale of 1-3 (1=doubtful, 2=probable, 3=definite), and, based on the number of positive answers, a diagnosis is determined by a clinician. While the entire SCID-I/P is administered at screen, the mood module is administered at each follow up visit. • (2) The MGH Antidepressant Treatment History Questionnaire (MGH-ATR): The MGH-ATR provides specific criteria for the adequate dose and adequate length of a trial for it to be considered a failure, thus allowing clinicians to systematically collect data aimed at assessing the degree of treatment-resistance of the current major depressive episode. • (3) The 28-item Hamilton Depression Scale (HAM-D-28): This version allows scoring of the HAM-D-17, 21-, 25-, and 28-item scales. This instrument is completed by the clinician by using a structured interview and defined anchor points, and aims to quantify the degree of depression over the past 7 days. The HAM-D is the most widely studied instrument for depression, and its reliability and validity are high. • (4) Clinical Global Impressions—Severity and Improvement (CGI-S, CGI-I): These two instruments are scored 1-7 by the clinician based on assessment of the patient's clinical status. They measure, based on history and scores on other instruments: a) Depressive severity (CGI-S) and b) Clinical Improvement (CGI-I). […] Safety Measurements
Data are entered and error-checked at each clinical site involved in the study. Study staff and subjects may have the option to enter self-evaluations into the system directly using DatStat Illume™. The process of data entry is supervised by the DCRP staff. Once the data set is entered and checked, analyses are conducted. Both a completer analysis of all patients finishing the trial and an intent-to-treat analysis examining all patients enrolled into the trial are used to define the severity of depression at endpoint. Examination of both study completers and all patients randomized can provide the broadest assessment of the effects of treatment in trials of such kind. The data from Trial 2 can be pooled with those from Trial 1 with the sequential parallel comparison design, to provide an estimate of the placebo response based on a larger sample size. […] Let p1, q1 be the response rates to the first administration of drug and placebo respectively and let p2, q2 be the responses rates to the second treatment.

[2] = system: MDD patients positive or negative for SNP biomarkers; details: subjects positive for MTR 2756 AG or GG versus negative
Excerpt: A responder is indicated by a reduction of at least about 50% in HAMD-28 over the evaluation period.

[3] = Pooled Phase 1 and 2, 7.5 mg/day + SSRI

For `CN1c2c(nc(N)[nH]c2=O)NC[C@@H]1CNc1ccc(C(=O)N[C@@H](CCC(=O)O)C(=O)O)cc1` [6(S)-5-MTHF, 6(S)-5-methyltetrahydrofolate], the “efficacy as an adjunct to the SSRIs” value ([1]; 7.5 mg/day) was “not effective”, the “CGI-S Mean score reduction” value ([1]; Phase 1, 7.5 mg/day + SSRI) was −0.5 and the “HDRS-17 % Remission” value ([1]; Phase 1, 7.5 mg/day + SSRI) was 11.1%. The “HDRS-17 % Response” value ([1]; Phase 1, 7.5 mg/day + SSRI) was 19.4%, the “HDRS-17 Mean score reduction” value ([1]; Phase 1, 7.5 mg/day + SSRI) was −4.3 and the “QIDS-SR % Remission” value ([1]; Phase 1, 7.5 mg/day + SSRI) was 0.0%. The “QIDS-SR % Response” value ([1]; Phase 1, 7.5 mg/day + SSRI) was 25.0%, the “QIDS-SR Mean score reduction” value ([1]; Phase 1, 7.5 mg/day + SSRI) was −4.6 and the “CGI-S Mean score reduction” value ([1]; Phase 2, 7.5 mg/day + SSRI) was −0.5. The “HDRS-17 % Remission” value ([1]; Phase 2, 7.5 mg/day + SSRI) was 14.2%, the “HDRS-17 % Response” value ([1]; Phase 2, 7.5 mg/day + SSRI) was 17.1% and the “HDRS-17 Mean score reduction” value ([1]; Phase 2, 7.5 mg/day + SSRI) was −3.1. For the same compound, the “QIDS-SR % Remission” value ([1]; Phase 2, 7.5 mg/day + SSRI) was 8.5%, the “QIDS-SR % Response” value ([1]; Phase 2, 7.5 mg/day + SSRI) was 8.5% and the “QIDS-SR Mean score reduction” value ([1]; Phase 2, 7.5 mg/day + SSRI) was −1.9. For the same compound, the “CGI-S Mean score reduction” value [1, 3] was −0.53, the “HDRS-17 % Remission” value [1, 3] was 12.7% and the “HDRS-17 % Response” value [1, 3] was 18.3%. The “HDRS-17 Mean score reduction” value [1, 3] was −3.70, the “QIDS-SR % Remission” value [1, 3] was 4.3% and the “QIDS-SR % Response” value [1, 3] was 16.8%. For the same compound, the “QIDS-SR Mean score reduction” value [1, 3] was −3.25, the “increase in response and remission rate versus placebo with the SSRIs” value ([1]; Trial 1, 15 mg/day in second phase) was “at least 2 fold” and the “response and remission rate” value ([1]; Trial 1, drug/drug sequence, dose increased to 15 mg/day in second phase, placebo 9%, p=0.1) was 24%. For the same compound, the “treatment effect within genetic modifiers (race, age, sex, BMI)” value [2] was “statistically significant treatment effect”.
